In patent US10961551B2, “Process for producing at least one metabolite of interest by conversion of a pentose in a microorganism” (INSTITUT NATIONAL DE LA RECHERCHE AGRONOMIQUE—INRA, priority 2014, dated 2021):
Read-outs that look alike come from different tables or passages of the source.

What was measured:
[1] = biological target: T1, Fructose-16bP aldolase Aldo-B (aldolase B), H. sapiens, SEQ ID NO:2 (Homo sapiens, UniProt P05062); experiment: Kinetic parameters of candidate aldolase by coupled NADH consumption assay; type: biochemical; conditions: Hepes buffer pH 7, NADH consumption at 340 nm
T1 sequence (P05062 1-364): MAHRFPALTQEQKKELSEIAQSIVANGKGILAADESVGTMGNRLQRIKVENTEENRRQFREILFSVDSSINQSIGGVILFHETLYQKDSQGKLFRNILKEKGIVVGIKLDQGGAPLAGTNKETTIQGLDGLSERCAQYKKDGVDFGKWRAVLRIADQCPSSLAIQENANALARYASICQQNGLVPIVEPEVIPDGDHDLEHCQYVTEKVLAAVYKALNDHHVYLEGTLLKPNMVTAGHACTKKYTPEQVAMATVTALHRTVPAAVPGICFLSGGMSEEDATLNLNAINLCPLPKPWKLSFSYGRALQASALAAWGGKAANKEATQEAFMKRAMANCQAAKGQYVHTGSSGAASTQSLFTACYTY
Protocol: (§1) The cloning of the candidate aldolases was done by amplifying aldoB, fbaB and agaY by PCR (using, respectively, the primer pairs P5/P6, P7/P8 and P11/P12 listed in table 3). This amplification was performed from the plasmid peX-A-aldoB carrying aldoB with codon optimization (Eurofins) or from the E. coli genomic DNA for fbaB and agaY, respectively. The fragments were then cloned in pGEM (Invitrogen). […] The ligation product is transformed in the E. coli strain BL21(DE3).

[2] = biological target: T2, Fructose-16bP aldolase FbaB (fructose-1,6 bisphosphate aldolase B), E. coli, SEQ ID NO:9 (Escherichia coli, UniProt P0A991); experiment: as above; type: biochemical; conditions: Hepes buffer pH 7, NADH consumption at 340 nm
T2 sequence (P0A991 1-350): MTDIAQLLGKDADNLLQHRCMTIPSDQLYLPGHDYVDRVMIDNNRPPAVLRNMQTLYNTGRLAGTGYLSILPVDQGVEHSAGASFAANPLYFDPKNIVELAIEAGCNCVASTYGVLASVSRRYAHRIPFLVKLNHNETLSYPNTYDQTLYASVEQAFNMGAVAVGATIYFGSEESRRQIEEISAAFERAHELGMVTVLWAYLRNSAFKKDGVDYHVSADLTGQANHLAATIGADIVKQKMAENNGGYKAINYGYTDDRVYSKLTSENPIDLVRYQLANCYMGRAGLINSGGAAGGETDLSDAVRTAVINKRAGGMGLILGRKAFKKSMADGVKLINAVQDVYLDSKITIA
Protocol: as §1

[3] = biological target: (L)-rhamnulose kinase RhaB, E. coli, SEQ ID NO:6 (Escherichia coli, UniProt P32171); experiment: Kinetic parameters of candidate kinase by pyruvate kinase/lactate dehydrogenase coupling reaction; type: biochemical; conditions: Table 1A; 4 mM ATP, Hepes buffer pH 7, NADH at 340 nm
[4] = biological target: T3, Ketohexokinase Khk-C (ketohexokinase C), H. sapiens, SEQ ID NO:1 (Homo sapiens, UniProt P50053); conditions: 4 mM ATP, Hepes buffer pH 7, NADH at 340 nm
T3 sequence (P50053 1-298): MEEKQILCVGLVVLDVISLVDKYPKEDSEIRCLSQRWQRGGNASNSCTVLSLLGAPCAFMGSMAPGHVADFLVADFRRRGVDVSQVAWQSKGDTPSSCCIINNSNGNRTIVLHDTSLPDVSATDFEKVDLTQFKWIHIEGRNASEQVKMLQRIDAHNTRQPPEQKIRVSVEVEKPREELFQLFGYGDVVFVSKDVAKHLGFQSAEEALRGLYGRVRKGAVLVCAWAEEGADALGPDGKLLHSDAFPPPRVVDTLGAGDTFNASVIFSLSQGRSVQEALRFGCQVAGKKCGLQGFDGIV

[5] = biological target: T4, L-fuculokinase FucK (fuculose kinase), E. coli, SEQ ID NO:5 (Escherichia coli, UniProt P11553); experiment: Kinetic parameters of candidate kinase by pyruvate kinase/lactate dehydrogenase coupling reaction; type: biochemical; conditions: Table 1A; 4 mM ATP, Hepes buffer pH 7, NADH at 340 nm
T4 sequence (P11553 1-472): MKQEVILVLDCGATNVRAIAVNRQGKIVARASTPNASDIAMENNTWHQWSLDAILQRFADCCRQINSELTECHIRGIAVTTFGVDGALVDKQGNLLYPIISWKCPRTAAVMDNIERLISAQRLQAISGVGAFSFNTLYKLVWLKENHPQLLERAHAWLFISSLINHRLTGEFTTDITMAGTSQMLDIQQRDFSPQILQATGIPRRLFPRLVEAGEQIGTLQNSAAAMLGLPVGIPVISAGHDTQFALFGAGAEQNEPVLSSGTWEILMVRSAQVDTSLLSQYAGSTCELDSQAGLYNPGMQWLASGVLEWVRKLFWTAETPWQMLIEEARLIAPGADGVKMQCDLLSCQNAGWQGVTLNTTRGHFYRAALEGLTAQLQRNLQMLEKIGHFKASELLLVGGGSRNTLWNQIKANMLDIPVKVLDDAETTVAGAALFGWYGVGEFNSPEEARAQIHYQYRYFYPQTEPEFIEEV

[6] = Kinase kinetic parameters on (L)-ribulose (pyruvate kinase/lactate dehydrogenase coupling reaction); type: biochemical
From the text: The same approach was used to characterize these parameters on (L)-ribulose: […]

[7] = Kinase kinetic parameters on (D)-xylulose (pyruvate kinase/lactate dehydrogenase coupling reaction); type: biochemical
[8] = substrate: C[C@H](O)[C@@H](O)[C@@H](O)C(=O)CO; experiment: Kinetic parameters of candidate kinase by pyruvate kinase/lactate dehydrogenase coupling reaction; type: biochemical, E. coli; conditions: other: Table 1A, 4 mM ATP, Hepes buffer pH 7, NADH at 340 nm, 37.0 °C
[9] = Aldolase kinetic parameters on (L)-ribulose-1-phosphate (NADH-coupled assay); type: biochemical
From the text: (L)-ribulose-1 kinase: (L)-ribulose+ATP→(L)-ribulose-1P+ADP (L)-ribulose-1P aldolase: (L)-ribulose-1P→DHAP+glycolaldehyde Glycerol-3P dehydrogenase: DHAP+NADH→Glycerol-3P+NAD

[10] = substrate: O=P(O)(O)OC[C@H]1OC(O)(COP(=O)(O)O)[C@@H](O)[C@@H]1O; experiment: purified protein, by the assay type; conditions: other: Hepes buffer pH 7, NADH consumption at 340 nm, 37.0 °C
[11] = Aldolase kinetic parameters on (D)-xylulose-1-phosphate (NADH-coupled assay); type: biochemical

Sequence of (L)-rhamnulose kinase RhaB, E. coli, SEQ ID NO:6 (P32171 whole entry): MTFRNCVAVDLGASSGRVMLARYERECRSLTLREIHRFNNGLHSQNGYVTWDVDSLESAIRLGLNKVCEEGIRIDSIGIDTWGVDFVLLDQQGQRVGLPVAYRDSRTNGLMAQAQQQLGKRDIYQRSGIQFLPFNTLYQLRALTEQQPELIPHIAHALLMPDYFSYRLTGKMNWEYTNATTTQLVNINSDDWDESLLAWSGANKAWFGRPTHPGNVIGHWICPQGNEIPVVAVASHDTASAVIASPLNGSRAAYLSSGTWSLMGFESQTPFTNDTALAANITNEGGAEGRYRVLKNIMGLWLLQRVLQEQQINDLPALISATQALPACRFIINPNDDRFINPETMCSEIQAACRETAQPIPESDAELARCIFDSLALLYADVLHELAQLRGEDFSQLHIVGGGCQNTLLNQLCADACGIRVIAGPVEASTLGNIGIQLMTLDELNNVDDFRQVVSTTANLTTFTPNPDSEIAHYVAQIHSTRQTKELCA

`O=C(COP(=O)(O)O)[C@@H](O)[C@H](O)CO` [(D)-Xylulose-1P, (D)-xylulose-1-phosphate] showed a Vmax [1] of 0.81 ± 0.2 U/mg and a Vmax [2] of 0.18 ± 0.04 U/mg.

With `O=C(CO)[C@@H](O)[C@H](O)CO` [(D)-xylulose] the Km [3] was “ns”, the Vmax [3] was 18.7 U/mg and the Km ([4]; Table 1A) was 600 µM. For the same molecule, the Vmax ([4]; Table 1A) was 3.1 U/mg, the Km [5] was “ns” and the Vmax [5] was 0.1 U/mg.

In the case of `O=C(COP(=O)(O)O)[C@@H](O)[C@@H](O)CO` [(L)-Ribulose-1P, (L)-ribulose-1-phosphate], the Vmax [1] is reported as 0.00 U/mg and the Vmax [2] is reported as 0.06 ± 0.01 U/mg.

Work on `O=C(CO)[C@@H](O)[C@@H](O)CO` [(L)-ribulose] yielded a Km ([4]; Table 1B) of 550 µM and a Vmax ([4]; Table 1B) of 3.5 U/mg.

`OCC1(O)OC[C@@H](O)[C@@H](O)[C@@H]1O` (stereo partly drawn) [fructose] showed a Km ([4]; Table 1A) of 720 µM, a Vmax ([4]; Table 1A) of 6 U/mg and a Km ([4]; Table 1B) of 310 ± 100 µM. It also gave a Vmax ([4]; Table 1B) of 6.59 ± 1.4 U/mg.

In the case of “Khk-C: isoform C of ketohexokinase of H. sapiens, encoded by khkC gene SEQ ID NO:1, expressed from pET28a and purified”, the “functional on (L)-ribulose” value [6] is reported as “functional” and the “functional on (D)-xylulose” value [7] is reported as “functional”.

B1: L-fuculokinase FucK (fuculose kinase), E. coli, SEQ ID NO:5 (Escherichia coli K-12) (protein)
chain: T4 sequence (P11553 1-472)
With B1 the Km [8] was 60 µM and the Vmax [8] was 20 U/mg.

B2: Fructose-16bP aldolase FbaB (fructose-1,6 bisphosphate aldolase B), E. coli, SEQ ID NO:9 (Escherichia coli K-12) (protein)
chain: T2 sequence (P0A991 1-350)
In the case of B2, the “activity on (L)-ribulose-1P” value [9] is reported as “has an activity”, the Km [10] is reported as 330 ± 70 µM and the Vmax [10] is reported as 0.52 ± 0.1 U/mg. For the same molecule, the “activity on (D)-xylulose-1P” value [11] was “has an activity”.

B3: Fructose-16bP aldolase Aldo-B (aldolase B), H. sapiens, SEQ ID NO:2 (Homo sapiens) (protein)
chain: T1 sequence (P05062 1-364)
For B3, the Km [10] was 30 ± 10 µM, the Vmax [10] was 0.46 ± 0.05 U/mg and the “activity on (D)-xylulose-1P” value [11] was “has an activity”.
